Assay results: ChEMBL document CHEMBL1146044, “Synthesis, enzymatic inhibition, and cancer cell growth inhibition of novel delta-lactam-based histone deacetylase (HDAC) inhibitors” (Bioorg Med Chem Lett, 2006)
Calls of active or inactive are those of the source. The rule behind the calls is not given here.

Columns and labels:
Assay type in all cases: functional
NCI-H23 = test: Antiproliferative activity against human NCI-H23 cells by SRB assay
ACHN = test: Antiproliferative activity against human ACHN cells by SRB assay
HCT-15 = test: Antiproliferative activity against human HCT15 cells by SRB assay
LOX IMVI = test: Antiproliferative activity against human LOX-IMVI cells by SRB assay
PC-3 = test: Antiproliferative activity against human PC3 cells by SRB assay
MDA-MB-231 = test: Antiproliferative activity against human MDA-MB-231 cells by SRB assay

`COc1ccc(CN2CCC=C(CCC(=O)NO)C2=O)c(OC)c1` showed a GI50 (NCI-H23) greater than 10 µM.
For `O=C(CCC1=CCCN(Cc2ccccc2)C1=O)NO`, the GI50 (ACHN) was greater than 10 µM, the GI50 (HCT-15; Homo sapiens, HCT-15) was greater than 10 µM and the GI50 (NCI-H23) was greater than 10 µM. For the same molecule, the GI50 (LOX IMVI) was greater than 10 µM and the GI50 (PC-3) was greater than 10 µM.
For `C=CCN1CCC=C(CCC(=O)NO)C1=O`, the GI50 (PC-3) was “inactive”.
In the case of `O=C(CCC1=CCCN(CCc2ccccc2)C1=O)NO`, the GI50 (NCI-H23) is reported as greater than 10 µM.
In the case of `O=C(CCCCCCC(=O)Nc1ccccc1)NO` [VORINOSTAT], the GI50 (HCT-15) is reported as 0.82 µM and the GI50 (MDA-MB-231) is reported as 0.66 µM.
